Laboratory results as given in patent US20260297068A1, “SOLID FORM OF N-SUBSTITUTED PHENYLSULFONAMIDE COMPOUND” (SHANGHAI LEADO PHARMATECH CO. LTD., priority 2022, published 2026).
Counter-ions that a name gives are not always drawn.

Legend:
[1] = Solid-state stability (HPLC purity and crystal form by XRPD after storage); format: physicochemical; details: for Purity / Initial purity / HPLC purity after storage at 168 h / HPLC purity after storage at 336 h / HPLC purity after storage at 672 h: HPLC; for Initial purity: starting sample before storage; for HPLC purity after storage at 168 h / HPLC purity after storage at 336 h / HPLC purity after storage at 672 h: solid state, open
Method: About 10 mg of each solid form of the compound was weighed and added to the HPLC vial, respectively, the bottleneck was sealed with a sealing film, and 10 small holes were made on the film. The vial was placed in 25° C./60% RH and 40° C./75% RH environment for 4 weeks, samples were taken in the 1st week, the 2nd week and the 4th week respectively, the purity (by HPLC analysis) and crystal form (by X ray powder diffraction analysis) of the sample were investigated.

[2] = Hygroscopicity by dynamic moisture adsorption (DVS); format: physicochemical; details: 25° C./80% RH, 0% RH-95% RH adsorption curve
Method: Dynamic moisture adsorption (DVS) analysis: the instrument is a DVS Intrinsic produced by SMS company (Surface Measurement Systems); temperature, 25° C.; carrier gas, flow rate: nitrogen, 200 mL/min; mass change per unit time: 0.002%/min; relative humidity range: 0% RH-95% RH.
Dynamic moisture absorption (DVS) was used to test their hygroscopicity.

[3] = 40 °C/75% RH/open, 2 weeks, 20160 min
[4] = 40 °C/75% RH/open, 4 weeks, 40320 min
[5] = 25 °C/60% RH/open, 1 week, 10080 min
[6] = 25 °C/60% RH/open, 2 weeks, 20160 min
[7] = 25 °C/60% RH/open, 4 weeks, 40320 min
[8] = 40 °C/75% RH/open, 1 week, 10080 min
[9] = 25° C./60% RH and 40° C./75% RH, 4 weeks, result in words

Compound	Purity [1, 3] [area %]	Purity [1, 4] [area %]	Initial purity [1] [area %]	HPLC purity after storage at 168 h ([1]; 25 °C/60% RH/open, 1 week) [%]	HPLC purity after storage at 336 h ([1]; 25 °C/60% RH/open, 2 weeks) [%]	HPLC purity after storage at 672 h ([1]; 25 °C/60% RH/open, 4 weeks) [%]	HPLC purity after storage at 168 h ([1]; 40 °C/75% RH/open, 1 week) [%]	moisture adsorption value (moisture uptake) [2] [%]	Purity [1, 5] [area %]	Purity [1, 6] [area %]	Purity [1, 7] [area %]	Purity [1, 8] [area %]	HPLC purity change on storage [1, 9]	crystalline phase change on storage (XRPD) [1, 9]	HPLC purity after storage at 336 h ([1]; 40 °C/75% RH/open, 2 weeks) [%]	HPLC purity after storage at 672 h ([1]; 40 °C/75% RH/open, 4 weeks) [%]
CNCc1ccc(NS(=O)(=O)c2ccsc2)c(-c2ccco2)c1 [fumarate crystal form B, N-(2-(furan-2-yl)-4-((methylamino)methyl)phenyl)thiophene-3-sulfonamide]	98.5	98.52	98.55	98.5	98.5	98.6	98.4	0.2								
CNCc1ccc(NS(=O)(=O)c2ccsc2)c(-c2ccco2)c1 [Phosphate crystal form G, N-(2-(furan-2-yl)-4-((methylamino)methyl)phenyl)thiophene-3-sulfonamide]	98.06	98.01	98.11						98.11	98.09	98.04	98.11				
CNCc1ccc(NS(=O)(=O)c2ccsc2)c(-c2ccco2)c1 [benzene sulfonate crystal form J, N-(2-(furan-2-yl)-4-((methylamino)methyl)-phenyl)thiophene-3-sulfonamide]	98.82	98.79	98.87						98.87	98.85	98.82	98.87				
CNCc1ccc(NS(=O)(=O)c2ccsc2)c(-c2ccco2)c1 [Pyroglutamate crystal form I, N-(2-(furan-2-yl)-4-((methylamino)methyl)phenyl)thiophene-3-sulfonamide]	98.54	98.32	98.61						98.61	98.58	98.57	98.61				
CNCc1ccc(NS(=O)(=O)c2ccsc2)c(-c2ccco2)c1 [succinate crystal form E, N-(2-(furan-2-yl)-4-((methylamino)methyl)phenyl)thiophene-3-sulfonamide]	98.72	98.98	98.82					0.6	98.92	98.86	98.94	98.92				
CNCc1ccc(NS(=O)(=O)c2ccsc2)c(-c2ccco2)c1 [sulfate crystal form D, N-(2-(furan-2-yl)-4-((methylamino)methyl)phenyl)thiophene-3-sulfonamide]	98.65	98.78	98.77					1.3	98.74	98.65	98.78	98.76				
CNCc1ccc(NS(=O)(=O)c2ccsc2)c(-c2ccco2)c1 [free crystal form A, N-(2-(furan-2-yl)-4-((methylamino)methyl)phenyl)thiophene-3-sulfonamide]			98.11					1.6	98.18	98.14	98.1	98.19	did not decrease significantly	no detectable crystalline phase changes	98.2	98.1
CNCc1ccc(NS(=O)(=O)c2ccsc2)c(-c2ccco2)c1 [malate crystal form F, N-(2-(furan-2-yl)-4-((methylamino)methyl)phenyl)thiophene-3-sulfonamide]	98.75	98.68	98.72					1.4	98.72	98.7	98.79	98.74				
CNCc1ccc(NS(=O)(=O)c2ccsc2)c(-c2ccco2)c1 [Malonate crystal form K, N-(2-(furan-2-yl)-4-((methylamino)methyl)phenyl)thiophene-3-sulfonamide]	98.58	98.46	98.64						98.64	98.61	98.59	98.64				
CNCc1ccc(NS(=O)(=O)c2ccsc2)c(-c2ccco2)c1 [Tartrate crystal form H, N-(2-(furan-2-yl)-4-((methylamino)methyl)phenyl)thiophene-3-sulfonamide]	98.6	98.53	98.71						98.71	98.62	98.6	98.7				
CNCc1ccc(NS(=O)(=O)c2ccsc2)c(-c2ccco2)c1 [hydrochloride crystal form C, N-(2-(furan-2-yl)-4-((methylamino)methyl)phenyl)thiophene-3-sulfonamide]	98.9	99	99.02					5.5	98.97	98.92	98.87	99.02				
